Assay results reported in PubChem BioAssay AID1159560 (GlaxoSmithKline (GSK), 2015).
pIC50: −log10 of the molar value. Active and inactive are the calls of the source. The rule behind the calls is not given here.

System: Leishmania donovani growth inhibition
Assay: Leishmania donovani growth inhibition (AID 1159560);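 note: parasites exposed to compound for 72 h before the viability read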

SMILES	IC50	pIC50
N#Cc1ccc(S(=O)(=O)N2CCC3(CCN(c4ccccc4)C3=O)CC2)cc1	> 50 µM (inactive)	–
O=C(Cn1cnc2cc([N+](=O)[O-])ccc2c1=O)NCCc1ccc(Cl)cc1Cl	> 50 µM (inactive)	–
CCc1ccc2nc(NC(=O)c3cc(N4CCOCC4)ccn3)sc2c1	–	5.70
Nc1nc(-c2ccccc2)cc(-c2nc3ncccc3[nH]2)n1	–	5.40
CC(=O)Nc1nc(-c2cc(C)ccc2C)c(C)s1	> 50 µM (inactive)	–
CCC(=O)Nc1ccccc1C(=O)Nc1ccccn1	> 50 µM (inactive)	–
c1ccc(CNc2cccc3ccncc23)cc1	–	5.00
CCOc1ccc(NC(=O)C=Cc2ccc(CC)o2)cc1	–	4.70
COc1ccc(Cl)cc1CC(=O)Nc1n[nH]c(-c2ccccn2)n1	–	5.40
COc1ccc(S(=O)(=O)Nc2ccccc2OC)cc1NC(=O)CCCc1c[nH]c2ccccc12	–	4.60
CC(C)C[C@H](NC(=O)c1csc(-c2cccs2)n1)C(=O)NC1(C#N)CC1	–	5.30
c1ccc(-c2nc(NC3CCCC3)c3ccccc3n2)nc1	–	5.40
CS(=O)(=O)NC1CCC(Nc2ncc(Br)c(Nc3ccccc3C(N)=O)n2)CC1 (stereo unspecified)	–	6.00
O=C1NCCn2ccc(Nc3nc(NC4CCC(O)CC4)ncc3Cl)c21 (stereo unspecified)	–	5.60
Cc1[nH]nc(C(F)(F)F)c1NC(=O)CCn1cc(Cl)c([N+](=O)[O-])n1	> 50 µM (inactive)	–
O=C(NCCCn1cnc2ccccc21)c1ccc(NC(=O)c2ccco2)cc1	–	5.89
CCCCNc1nccc(-c2c(-c3ccc(F)cc3)nn3c(N4CCOCC4)cccc23)n1	> 50 µM (inactive)	–
Cn1ccnc1-c1nc(NCc2ccccc2Cl)cc(C2CC2)n1	–	5.80
O=C(CCCNC(=O)c1ccc(Cl)cc1)Nc1nc(-c2ccccn2)cs1	> 50 µM (inactive)	–
Cc1nc2nc(C)c(Cc3ccc(C(C)C)cc3)c(=O)n2[nH]1	–	5.89
O=C(N[C@H](CO)c1ccccc1)c1ccc(-c2c[nH]c3nccc(C(F)(F)F)c23)s1	–	4.49
Cc1nn(C)c(Cl)c1CN(Cc1cccnc1)Cc1ccsc1	–	5.70

SMILES	IC50	pIC50
Nc1nccc(-c2csc(Nc3ccc(Cl)cc3)n2)n1	–	5.40
COc1ccc(Cc2nc(-c3ncc4cccnc4c3O)n[nH]2)cc1OC	–	6.49
CCOc1ccc2nc(NC(=O)c3ccc([N+](=O)[O-])s3)sc2c1	–	5.60
O=C(NNC(=O)c1ccccn1)c1ccc(-c2ccccc2)cc1	–	5.49
CCCCCNC(=O)c1c[nH]c2ccc(S(=O)(=O)N(C)c3ccc(OCC)cc3)cc2c1=O	> 50 µM (inactive)	–
CCOC(=O)c1noc(N)c1-c1ccccc1	> 50 µM (inactive)	–
COc1ccc2ncc(=O)n(CCN3CCOC(CNCc4ccc(C(F)(F)F)cc4F)C3)c2n1 (stereo unspecified)	–	4.40
N#Cc1ccc(C(=O)Nc2cccc(-c3cccc(CN4CCC(O)CC4)c3)c2)cc1	> 50 µM (inactive)	–
CC(C)COC(=O)Nc1ccc(N2CCC(CNS(=O)(=O)c3ccccc3)CC2)c(F)c1	–	5.40
Cc1ccc(Nc2nc(C3CCCN3Cc3ccn[nH]3)cs2)nc1 (stereo unspecified)	–	4.89
O=C(NCC1CCCCN1C(=O)c1cccc2ccccc12)c1ccccc1 (stereo unspecified)	> 50 µM (inactive)	–
O=c1[nH]ccc2ccc(-c3ccncc3)cc12	> 50 µM (inactive)	–
COc1ccc([N+](=O)[O-])cc1NC(=O)Nc1cccc(Cl)c1	> 50 µM (inactive)	–
O=C(CN1CCN(c2ccccn2)CC1)Nc1cc(S(=O)(=O)N2CCCCCC2)ccc1Cl	–	5.10
CCc1ccccc1[C@@H](C)NC(=O)c1cnc2c(cnn2CC)c1NC1CCN(C(N)=O)CC1	> 50 µM (inactive)	–
COCc1cc(Nc2ccccc2)nc(-c2ccccn2)n1	–	5.10
Cc1nc(C(=O)Nc2ccc3c(c2)OCO3)nn1-c1ccc(Cl)cc1	–	5.60
CC1=C(C(=O)Nc2ccc(Cl)cc2)C(c2ccncc2)n2ncc(C(=O)Nc3ccccc3)c2N1 (stereo unspecified)	–	6.89
COc1ccccc1C(=O)Nc1nnc(-c2ccc3c(c2)OCO3)s1	–	6.00
Cc1nnnn1-c1cccc(C(=O)N2CCC[C@@]3(C)c4ncncc4CCC23)c1 (stereo partly specified)	–	6.40
CC1CCCN(S(=O)(=O)c2ccc(C(=O)Nc3nc(-c4ccccn4)cs3)cc2)C1 (stereo unspecified)	–	5.80
NCC(Cc1ccccc1)NC(=O)c1cnc(-c2c[nH]c3ncccc23)s1 (stereo unspecified)	> 50 µM (inactive)	–

SMILES	IC50	pIC50
O=C(Nc1nc(-c2ccccn2)cs1)N1C[C@H]2C[C@@]2(c2ccccc2)C1	–	5.70
O=C(NCc1ccncc1)c1ccccc1N1CCCN(C(=O)Cc2ccc(F)c(F)c2)CC1	–	5.60
COc1ccc(NS(=O)(=O)c2cc(NC(=O)c3ccc([N+](=O)[O-])s3)ccc2OC)cc1	–	6.30
O=[N+]([O-])c1ccc(C2=CC(c3ccccc3)=NCCN2)cc1	> 50 µM (inactive)	–
Cc1cc(Oc2cc(Cl)c(Cl)cc2Cl)n2ncnc2n1	–	4.80
COc1cc(OC)cc(C(NS(=O)(=O)c2ccc(Cl)c(C(F)(F)F)c2)c2nccn2C)c1 (stereo unspecified)	–	5.00
Cc1cc(C)cc(NS(=O)(=O)c2cc(-c3cc(C)[nH]n3)ccc2C)c1	–	5.60
Oc1c(-c2n[nH]c(CCc3ccccc3)n2)ncc2cccnc12	–	6.49
CN(C)S(=O)(=O)c1ccc(-c2cnc(N)c(-c3nc4ccc(F)cc4[nH]3)c2)cc1	–	5.60
CN(C)Cc1ccc(-c2ccc(S(=O)(=O)NCC3CCCO3)c(F)c2)cc1 (stereo unspecified)	> 63 µM (inactive)	–
Cc1cccc(N2CCCN(Cc3c[nH]c4ccccc34)CC2)n1	> 50 µM (inactive)	–
O=C(c1cccc(Nc2ncc(-c3ccc4c(c3)OCO4)cn2)c1)N1CCSC1	–	5.89
O=S(=O)(c1cccc(CSc2nnc(-c3ccc4c(c3)OCO4)o2)c1)N1CCOCC1	–	6.30
CC(=O)Nc1ccc(-c2csc(NC(=O)c3ccc([N+](=O)[O-])s3)n2)cc1	–	6.40
CC(C)N(C(=O)CN1C(=O)C(N)C(=O)N(c2ccccc2)c2ccccc21)c1ccccc1 (stereo unspecified)	> 50 µM (inactive)	–
Cc1[nH]n2c(=O)c3c(nc2c1-c1ccc(F)cc1)CCCC3	–	5.89
c1cncc(CN(Cc2ccco2)Cc2cn[nH]c2-c2cccs2)c1	–	4.49
O=C(NCCc1ccccc1Cl)c1cccn1-c1cccnc1	–	5.20
O=C(c1ccc(O)c(Cl)c1)N1CCN(c2cnccn2)CC1	–	6.49
CCN(Cc1nc2ccc(C(=O)N3CCN(c4ncccn4)CC3)cc2[nH]1)C1CCCc2cccnc21 (stereo unspecified)	–	5.30
Cc1nn(-c2nc(N)nc(-c3ccccn3)n2)c(C)c1Cc1ccccc1	–	5.30
CC1=NN(C(=O)CCn2cnc([N+](=O)[O-])n2)C(O)(C(F)(F)F)C1 (stereo unspecified)	> 50 µM (inactive)	–

SMILES	IC50	pIC50
Cc1ccc(C)c(OC2CCN(C(=O)C(C)n3ccnc3)CC2)c1 (stereo unspecified)	–	5.60
Cc1ccccc1CNC(=O)CN(Cc1ccccn1)Cc1ccccn1	–	5.00
O=C(Nc1nc(-c2ccccn2)cs1)c1ccccc1-n1cnnn1	–	5.49
Cc1nc(-c2ccncc2)ncc1C(C)NC(=O)c1ccc(Cl)s1 (stereo unspecified)	> 50 µM (inactive)	–
CN(Cc1ccc(C(N)=O)cc1)C(c1ccc(F)cc1)c1cccnc1 (stereo unspecified)	> 50 µM (inactive)	–
CC(=Cc1ccccc1)CN1CCC(=O)N(Cc2cccnc2)CC1	> 50 µM (inactive)	–
COc1ccccc1CNc1cc(C2CC2)nc(-c2nccn2C)n1	–	6.00
OC[C@@H](Nc1nccc(-c2c(-c3ccc(F)cc3)ncn2C2CCNCC2)n1)c1ccccc1	> 50 µM (inactive)	–
Cc1c(C(C)NC(=O)Nc2cccc(Cl)c2)sc2ncnn12 (stereo unspecified)	–	5.70
O=C(NCCc1csc(-c2ccc(F)cc2)n1)c1cccs1	> 50 µM (inactive)	–
CN(Cc1cc2ccccc2s1)c1ncc2c(N)nc(N)nc2n1	–	4.49
Cc1cc(C)c(C#N)c(SCC(=O)c2ccc3c(c2)OCO3)n1	> 50 µM (inactive)	–
COc1cccc(Nc2cc(C)nc(-c3ccccn3)n2)c1	–	5.40
CCC1Oc2cc(S(=O)(=O)N(C)CC(=O)N3CCc4ccccc4C3)c(C)cc2NC1=O (stereo unspecified)	> 50 µM (inactive)	–
Clc1ccc(OCCN2CCCCC2c2cccnc2)c(Cl)c1 (stereo unspecified)	–	5.30
CC(C)c1cc(C(=O)N2CCCC(c3cc4ncccc4[nH]3)C2)on1 (stereo unspecified)	> 50 µM (inactive)	–
Cc1c(C(=O)NCCCCn2ccnc2)oc2c(C)cccc12	> 50 µM (inactive)	–
Cc1ncsc1CNc1cnc(-c2ccc3c(c2)OCCO3)c(-c2cnn(C)c2)c1	–	4.60
CCOc1ccc(N(C)S(=O)(=O)c2ccc3[nH]cc(C(=O)NC4CCCC4)c(=O)c3c2)cc1	> 50 µM (inactive)	–
CCOc1ccc(CN(C)Cc2nc(N)nc(Nc3ccc(C)cc3)n2)cc1	–	4.49
Cc1ccc2onc(Nc3ccnc(Nc4cccc(S(C)(=O)=O)c4)n3)c2c1	–	5.30
O=c1cc(NCCCNC2CCOc3c(I)cc(Cl)cc32)[nH]c2ccccc12 (stereo unspecified)	–	4.49

SMILES	IC50	pIC50
COc1ccc(S(=O)(=O)Nc2ccc(CN3CCN(C(=O)c4cccc(C#N)c4)CC3)cc2)cc1	–	4.49
CS(=O)(=O)c1ccc(Nc2nccc(-c3cnn4ncccc34)n2)cc1	–	6.10
O=C(Nc1ccc(Br)c(Cl)c1)Nc1ccc2c(c1)OCO2	> 50 µM (inactive)	–
COc1ccc(OC)c2c(=O)c(Cc3ccccc3)c(C)[nH]c12	–	6.40
CNS(=O)(=O)c1ccccc1Nc1nc(Nc2ccnn2C)ncc1Cl	–	6.70
Nc1nc(-c2ccccn2)nc(-n2nc(-c3ccccc3)cc2N)n1	–	5.70
CC(C(=O)Nc1ccccc1F)N(C)CC(=O)Nc1cccc2ccccc12 (stereo unspecified)	–	4.30
Cc1nccn1C1CCCN(C(=O)c2cc3c(F)cccc3s2)C1 (stereo unspecified)	–	5.30
CC(C)c1sc(Cl)nc1C(=O)NCCc1nc(C(=O)Nc2ccc3c(c2)OCO3)cs1	–	5.40
NC(N)=Nc1nc(-c2ccc(NC(N)=NCCN3CCCC3)cc2)cs1	> 50 µM (inactive)	–
O=C1OCc2ccc(Nc3nccc(-c4cnn5ncccc45)n3)cc21	–	7.20
OCC1CCCCN1c1cc(-c2ccccn2)nc(Nc2ccccc2)n1 (stereo unspecified)	–	5.49
COc1ccc2ncc(=O)n(CCN3CCC(NCc4ccc(-c5cccs5)cc4)CC3)c2n1	–	5.80
COc1ccc(-c2ccc3nnc(-c4ccc(O)c(OC)c4)n3c2)cn1	–	5.40
CS(=O)(=O)c1ccc(Nc2nccc(Nc3n[nH]c4ccc(F)cc34)n2)c(F)c1	–	4.89
CCCC(=O)N(Cc1ccccn1)c1nc2ccccc2s1	–	5.10
COc1cccc2sc(CN(C)C(=O)C3CNCCN3c3ccc(F)cc3)c(C)c12 (stereo unspecified)	–	4.49
O=C(Nc1ccc(-c2nc3ccccc3c(=O)[nH]2)cc1)c1cccs1	> 50 µM (inactive)	–
